From ChEMBL document CHEMBL5113372, “Paradigm shift of "classical" HDAC inhibitors to "hybrid" HDAC inhibitors in therapeutic interventions” (Eur J Med Chem, 2021)
Each block holds one compound with its values, some of them ahead of it.

Experiments:
[1] = target: Vitamin D3 receptor (Homo sapiens, UniProt P11473); assay: Displacement of fluorescent tracer from VDR (unknown origin) by fluorescence polarisation competition assay
[2] = target: T1, Protein deacetylase HDAC6 (Homo sapiens, UniProt Q9UBN7); assay: Inhibition of recombinant human HDAC6 expressed in baculovirus infected Hi-5 insect cells using Boc-Lys (epsilon-acetyl)-AMC as substrate incubated for 3 to 24 hrs by fluorescence based assay
T1 sequence (Q9UBN7 whole entry): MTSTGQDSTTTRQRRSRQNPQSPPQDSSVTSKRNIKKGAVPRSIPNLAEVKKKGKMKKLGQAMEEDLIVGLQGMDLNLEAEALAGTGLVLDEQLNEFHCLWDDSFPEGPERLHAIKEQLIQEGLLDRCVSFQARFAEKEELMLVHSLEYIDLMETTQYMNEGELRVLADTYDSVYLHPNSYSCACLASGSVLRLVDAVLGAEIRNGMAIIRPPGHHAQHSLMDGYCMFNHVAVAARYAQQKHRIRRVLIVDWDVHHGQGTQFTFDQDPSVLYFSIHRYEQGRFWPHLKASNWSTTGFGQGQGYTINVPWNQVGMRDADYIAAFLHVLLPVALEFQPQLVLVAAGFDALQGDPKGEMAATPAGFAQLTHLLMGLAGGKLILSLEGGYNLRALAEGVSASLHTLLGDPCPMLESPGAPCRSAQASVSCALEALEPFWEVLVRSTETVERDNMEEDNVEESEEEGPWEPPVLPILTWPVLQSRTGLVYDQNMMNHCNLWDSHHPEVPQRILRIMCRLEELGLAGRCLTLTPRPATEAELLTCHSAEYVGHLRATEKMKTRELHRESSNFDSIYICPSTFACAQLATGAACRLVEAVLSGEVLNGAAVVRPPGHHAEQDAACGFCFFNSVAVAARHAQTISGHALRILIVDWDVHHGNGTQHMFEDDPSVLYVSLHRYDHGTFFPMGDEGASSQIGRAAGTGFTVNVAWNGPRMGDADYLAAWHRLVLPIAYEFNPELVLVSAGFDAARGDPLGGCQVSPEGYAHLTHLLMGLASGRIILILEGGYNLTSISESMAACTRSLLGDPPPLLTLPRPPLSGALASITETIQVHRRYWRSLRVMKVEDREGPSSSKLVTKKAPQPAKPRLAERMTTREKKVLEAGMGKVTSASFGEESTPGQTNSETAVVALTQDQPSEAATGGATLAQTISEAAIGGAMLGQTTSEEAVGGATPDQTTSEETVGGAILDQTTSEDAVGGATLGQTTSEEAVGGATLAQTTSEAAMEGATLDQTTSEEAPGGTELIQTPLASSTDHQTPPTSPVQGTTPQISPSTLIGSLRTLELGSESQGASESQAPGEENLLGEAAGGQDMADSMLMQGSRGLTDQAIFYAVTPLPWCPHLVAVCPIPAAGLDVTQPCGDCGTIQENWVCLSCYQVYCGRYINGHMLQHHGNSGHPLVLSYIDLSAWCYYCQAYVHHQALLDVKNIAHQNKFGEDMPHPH

[3] = test system: A549; assay: Antiproliferative activity against human A549 cells assessed as cell growth inhibition incubated for 72 hrs by CCK-8 assay; assay type: functional, cell-based; details: A549, 72 h
[4] = test system: PC-3; assay: Antiproliferative activity against human PC-3 cells assessed as cell growth inhibition incubated for 72 hrs by CCK-8 assay; assay type: functional, cell-based; details: PC-3, 72 h
[5] = test system: HeLa; assay: Antiproliferative activity against human HeLa cells assessed as cell growth inhibition incubated for 72 hrs by CCK-8 assay; assay type: functional, cell-based
[6] = test system: MCF7; assay: Antiproliferative activity against human MCF7 cells assessed as cell growth inhibition incubated for 72 hrs by CCK-8 assay; assay type: functional, cell-based; details: MCF7, 72 h
[7] = test system: HepG2; assay: Antiproliferative activity against human HepG2 cells assessed as cell growth inhibition incubated for 72 hrs by CCK-8 assay; assay type: functional, cell-based; details: HepG2, 72 h
[8] = target: T2, Histone deacetylase 1 (Homo sapiens, UniProt Q13547); assay: Inhibition of recombinant human HDAC1 using HDAC substrate incubated for 30 mins by fluorescence based microplate reader analysis
[9] = target: T1, Protein deacetylase HDAC6; assay: Inhibition of recombinant human HDAC6 using HDAC substrate incubated for 30 mins by fluorescence based microplate reader analysis
[10] = target: Histone deacetylase 2 (Homo sapiens, UniProt Q92769); assay: Inhibition of recombinant human HDAC2 using HDAC substrate incubated for 30 mins by fluorescence based microplate reader analysis
[11] = test system: A549; assay: Antiproliferative activity against human A549 cells assessed as inhibition of cell viability treated for 12 to 48 hrs by MTT assay; assay type: functional, cell-based
[12] = test system: A549; assay: Antitumor activity against human A549 cells xenografted in BALB/c mouse assessed as tumor growth inhibition measured every 2 days for 2 to 3 weeks by caliper method relative to control; assay type: functional; details: time 2 day
[13] = test system: SK-BR-3; assay: Cytotoxicity against human SK-BR-3 cells assessed as cell growth inhibition; assay type: functional, cell-based
[14] = test system: A-431; assay: Cytotoxicity against human A-431 cells assessed as cell growth inhibition; assay type: functional, cell-based
[15] = target: T1, Protein deacetylase HDAC6; assay: Inhibition of HDAC6 (unknown origin)
[16] = test system: NCI-H1975; assay: Cytotoxicity against human NCI-H1975 cells assessed as cell growth inhibition; assay type: functional, cell-based
[17] = test system: A549; assay: Cytotoxicity against human A549 cells assessed as cell growth inhibition; assay type: functional, cell-based
[18] = test system: BT-474; assay: Cytotoxicity against human BT-474 cells assessed as cell growth inhibition; assay type: functional, cell-based
[19] = target: T2, Histone deacetylase 1; assay: Inhibition of HDAC1 (unknown origin)
[20] = target: Epidermal growth factor receptor (Homo sapiens, UniProt P00533); assay: Inhibition of EGFR (unknown origin)
[21] = target: T2, Histone deacetylase 1; assay: Inhibition of recombinant human HDAC1 using Boc-Lys (Ac)-AMC as substrate incubated for 60 mins by fluorescence based assay
[22] = test system: SMMC-7721; assay: cells; assay type: functional, cell-based; details: Homo sapiens, SMMC-7721, 48 h
[23] = Antiproliferative activity against human WM983B cells assessed as cell growth inhibition; assay type: functional, cell-based
[24] = test system: SK-MEL-5; assay: Antitumor activity against human SK-MEL-5 cells xenografted in BALB/c mouse assessed as reduction in tumor volume at 30 mg/kg, ip qd measured after 4 weeks by caliper method relative to control; assay type: functional; design: scale not given: the % may be the effect or the level left
[25] = target: Lysine-specific histone demethylase 1A (Homo sapiens, UniProt O60341); assay: Inhibition of LSD1 (unknown origin) using diMeK4H31-21 as substrate preincubated for 5 mins followed by substrate addition measured for 5 mins by absorbance based assay
[26] = target: T2, Histone deacetylase 1; assay: Inhibition of HDAC1 (unknown origin) using RHKK(Ac) as substrate incubated for 30 mins by fluorescence based assay
[27] = target: T2, Histone deacetylase 1; assay: Inhibition of recombinant human HDAC1 using Boc-L-Lys (Ac)-AMC as substrate incubated for 35 mins by microplate reader analysis
[28] = target: Androgen receptor (Rattus norvegicus, UniProt P15207); assay: Displacement of [3H]-mibolerone from rat androgen receptor incubated for 4 hrs by radioligand binding assay
[29] = test system: DU-145; assay: Antiproliferative activity against human DU-145 assessed as inhibition of cell viability incubated for 72 hrs by MTT/MTS assay; assay type: functional, cell-based; details: DU-145, 72 h
[30] = test system: LNCaP; assay: Antiproliferative activity against human LNCaP cells expressing androgen receptor assessed as inhibition of cell viability; assay type: functional, cell-based
[31] = test system: MCF7; assay: Cytotoxicity against human MCF7 cells assessed as cell growth inhibition by trypan blue dye based light microscopy; assay type: functional
[32] = target: T2, Histone deacetylase 1; assay: Inhibition of recombinant human HDAC1 using fluorogenic substrate measured after 60 mins by fluorescence based assay
[33] = test system: Jurkat; assay: Cytotoxicity against human Jurkat cells assessed as cell growth inhibition by trypan blue dye based light microscopy; assay type: functional
[34] = target: T1, Protein deacetylase HDAC6; assay: Inhibition of HDAC6 (unknown origin) using Boc-Lys(Ac)-7-amino-4-methylcoumarin (BocLys(Ac)-AMC) as substrate incubated for 30 mins by fluorescence based assay
[35] = target: T2, Histone deacetylase 1; assay: Inhibition of HDAC1 (unknown origin) using Boc-Lys(Ac)-7-amino-4-methylcoumarin (BocLys(Ac)-AMC) as substrate incubated for 30 mins by fluorescence based assay

T2 sequence (Q13547 whole entry): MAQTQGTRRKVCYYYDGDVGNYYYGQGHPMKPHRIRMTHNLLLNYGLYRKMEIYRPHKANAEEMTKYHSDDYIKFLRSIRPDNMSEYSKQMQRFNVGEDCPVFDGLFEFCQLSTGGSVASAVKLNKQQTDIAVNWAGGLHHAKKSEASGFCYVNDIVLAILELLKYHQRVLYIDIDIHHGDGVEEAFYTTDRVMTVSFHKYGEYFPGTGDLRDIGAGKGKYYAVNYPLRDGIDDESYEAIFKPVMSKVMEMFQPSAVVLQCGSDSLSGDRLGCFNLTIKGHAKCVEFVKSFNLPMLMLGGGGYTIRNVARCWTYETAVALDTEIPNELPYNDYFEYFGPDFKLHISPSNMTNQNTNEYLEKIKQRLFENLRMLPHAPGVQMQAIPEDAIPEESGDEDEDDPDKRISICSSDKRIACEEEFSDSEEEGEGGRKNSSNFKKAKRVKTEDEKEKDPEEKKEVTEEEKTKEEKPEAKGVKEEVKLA
Chain of Histone deacetylase 2 (Q92769 whole entry): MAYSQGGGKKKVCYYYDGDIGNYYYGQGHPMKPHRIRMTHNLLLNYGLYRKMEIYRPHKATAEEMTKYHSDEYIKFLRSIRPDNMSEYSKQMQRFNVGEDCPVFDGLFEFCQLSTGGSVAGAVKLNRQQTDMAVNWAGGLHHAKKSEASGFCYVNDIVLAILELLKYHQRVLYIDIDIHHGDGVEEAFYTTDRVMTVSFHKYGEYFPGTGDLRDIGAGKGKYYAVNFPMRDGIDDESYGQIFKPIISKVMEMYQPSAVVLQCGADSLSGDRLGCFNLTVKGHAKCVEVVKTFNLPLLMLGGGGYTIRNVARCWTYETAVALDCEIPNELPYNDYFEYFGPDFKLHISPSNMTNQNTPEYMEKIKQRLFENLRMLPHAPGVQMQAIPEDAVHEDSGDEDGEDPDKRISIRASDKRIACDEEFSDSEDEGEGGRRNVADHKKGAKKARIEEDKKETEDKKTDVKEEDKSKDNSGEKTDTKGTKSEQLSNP
Chain of Vitamin D3 receptor (P11473 whole entry): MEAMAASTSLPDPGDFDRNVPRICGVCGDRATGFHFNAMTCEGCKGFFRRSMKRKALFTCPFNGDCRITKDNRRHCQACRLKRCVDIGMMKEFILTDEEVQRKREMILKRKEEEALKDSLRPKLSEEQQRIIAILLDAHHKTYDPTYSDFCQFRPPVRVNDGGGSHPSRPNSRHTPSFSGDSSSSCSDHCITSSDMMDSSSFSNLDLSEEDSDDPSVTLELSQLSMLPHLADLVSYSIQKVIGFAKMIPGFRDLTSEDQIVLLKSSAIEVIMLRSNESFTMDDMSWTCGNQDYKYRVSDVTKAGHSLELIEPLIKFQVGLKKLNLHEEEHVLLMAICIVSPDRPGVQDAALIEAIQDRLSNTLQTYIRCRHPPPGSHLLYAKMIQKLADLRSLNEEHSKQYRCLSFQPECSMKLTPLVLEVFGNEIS
Chain of Androgen receptor (P15207 whole entry S389L): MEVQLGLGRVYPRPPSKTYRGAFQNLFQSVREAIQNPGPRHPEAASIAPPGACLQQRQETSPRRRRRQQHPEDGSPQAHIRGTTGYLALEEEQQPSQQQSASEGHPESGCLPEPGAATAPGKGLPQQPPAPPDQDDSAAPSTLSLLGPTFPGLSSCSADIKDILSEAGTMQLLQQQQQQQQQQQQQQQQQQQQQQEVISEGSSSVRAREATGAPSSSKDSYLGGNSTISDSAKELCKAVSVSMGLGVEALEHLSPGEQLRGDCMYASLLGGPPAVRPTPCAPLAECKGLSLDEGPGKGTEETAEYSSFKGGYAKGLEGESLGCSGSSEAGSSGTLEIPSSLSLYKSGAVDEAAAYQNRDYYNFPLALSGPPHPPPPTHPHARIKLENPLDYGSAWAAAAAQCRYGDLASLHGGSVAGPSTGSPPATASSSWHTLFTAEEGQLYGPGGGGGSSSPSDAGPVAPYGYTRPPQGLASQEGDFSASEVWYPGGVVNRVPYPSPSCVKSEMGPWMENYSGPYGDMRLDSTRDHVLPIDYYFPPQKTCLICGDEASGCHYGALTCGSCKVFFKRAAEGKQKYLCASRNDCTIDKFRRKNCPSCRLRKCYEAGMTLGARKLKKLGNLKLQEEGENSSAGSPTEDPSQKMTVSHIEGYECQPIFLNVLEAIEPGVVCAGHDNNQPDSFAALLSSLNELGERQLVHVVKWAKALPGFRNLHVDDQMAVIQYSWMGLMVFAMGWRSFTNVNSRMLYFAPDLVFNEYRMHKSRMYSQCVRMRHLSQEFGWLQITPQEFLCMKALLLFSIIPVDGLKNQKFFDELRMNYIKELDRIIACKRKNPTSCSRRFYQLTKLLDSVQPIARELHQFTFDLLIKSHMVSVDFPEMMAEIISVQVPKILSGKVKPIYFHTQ
Chain of Epidermal growth factor receptor (P00533 whole entry): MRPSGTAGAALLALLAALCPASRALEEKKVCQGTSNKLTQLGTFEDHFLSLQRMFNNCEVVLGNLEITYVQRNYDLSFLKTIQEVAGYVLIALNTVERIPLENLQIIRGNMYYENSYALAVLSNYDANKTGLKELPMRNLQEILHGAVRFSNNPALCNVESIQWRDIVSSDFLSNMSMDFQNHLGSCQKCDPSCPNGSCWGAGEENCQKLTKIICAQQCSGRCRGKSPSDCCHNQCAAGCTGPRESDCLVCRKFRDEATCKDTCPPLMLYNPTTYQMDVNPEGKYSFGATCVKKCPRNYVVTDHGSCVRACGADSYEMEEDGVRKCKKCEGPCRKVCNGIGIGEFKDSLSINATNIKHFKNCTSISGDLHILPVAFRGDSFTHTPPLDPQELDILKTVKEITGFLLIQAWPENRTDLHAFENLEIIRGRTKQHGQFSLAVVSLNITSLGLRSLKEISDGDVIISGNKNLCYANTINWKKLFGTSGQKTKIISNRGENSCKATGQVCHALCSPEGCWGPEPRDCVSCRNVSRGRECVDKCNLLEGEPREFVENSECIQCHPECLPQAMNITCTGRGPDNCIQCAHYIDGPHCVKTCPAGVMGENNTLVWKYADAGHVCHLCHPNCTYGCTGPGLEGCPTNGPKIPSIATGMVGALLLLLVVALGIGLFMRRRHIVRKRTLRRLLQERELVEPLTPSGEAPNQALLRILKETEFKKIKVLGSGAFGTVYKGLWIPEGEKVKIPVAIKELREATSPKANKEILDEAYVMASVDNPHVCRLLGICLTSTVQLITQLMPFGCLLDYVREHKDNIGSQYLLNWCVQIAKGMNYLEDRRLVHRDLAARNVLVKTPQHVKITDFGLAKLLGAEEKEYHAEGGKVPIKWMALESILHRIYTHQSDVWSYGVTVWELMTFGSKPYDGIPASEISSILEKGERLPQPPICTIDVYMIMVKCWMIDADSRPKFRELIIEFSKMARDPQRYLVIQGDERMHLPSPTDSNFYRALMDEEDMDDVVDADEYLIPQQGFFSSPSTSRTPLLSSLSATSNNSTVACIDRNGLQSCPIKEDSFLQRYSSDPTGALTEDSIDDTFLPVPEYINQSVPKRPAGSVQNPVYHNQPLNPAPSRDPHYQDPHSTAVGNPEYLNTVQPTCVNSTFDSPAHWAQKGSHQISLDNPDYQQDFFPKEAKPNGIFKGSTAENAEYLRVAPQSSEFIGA

IC50 [1]: 87 nM
Structure (SMILES): C=C1/C(=C\C=C2/CCC[C@@]3(C)[C@@H]2CC[C@H]3[C@@H](C)/C=C(C)/C=C/C(=O)NO)C[C@H](O)C[C@@H]1O

IC50 [2]: 2770 nM
Structure (SMILES): COCCOc1cc2ncnc(Nc3ccc(/C=C/C(=O)NO)cc3)c2cc1OCCOC

IC50 [3]: 2100 nM
IC50 [4]: 4.9 µM
IC50 [5]: 1100 nM
IC50 [6]: 300 nM
IC50 [7]: 2300 nM
IC50 [8]: 29 nM
IC50 [9]: 21 nM
IC50 [10]: 41 nM
Structure (SMILES): C[C@H]1COc2c(N3CCN(C)CC3)c(F)cc3c(=O)c(C(=O)NCC4CN(CC(=O)NO)N=N4)cn1c23 (stereo partly specified)

IC50 [11]: 4.9 µM
Structure (SMILES): C=C(c1ccc(C(=O)NO)cc1)c1cc2c(cc1C)C(C)(C)CCC2(C)C
TGI [12]: 53%

IC50 [15]: 4.3 nM
IC50 [19]: 1.1 nM
IC50 [20]: 10.3 nM
Structure (SMILES): O=C(CCCCCCN1CC(c2ccc3ncnc(Nc4ccc(Br)cc4F)c3c2)N=N1)NO (stereo unspecified)
IC50 [13]: 10.9 µM
IC50 [14]: 260 nM
IC50 [16]: 7.85 µM
IC50 [17]: 710 nM
IC50 [18]: 5.13 µM

IC50 [34]: 580 µM
IC50 [35]: 14.3 µM
Structure (SMILES): CCC(CC)(c1ccc(OCC(=O)NO)c(C)c1)c1ccc(OCC(O)C(C)(C)C)c(C)c1 (stereo unspecified)

More lines, now with the values behind:

Structure (SMILES): CC(C)=CCC/C(C)=C/CC/C(C)=C/CSc1ccccc1C(=O)NCCCCC(=O)NO
IC50 [21]: 58 nM
IC50 [22]: 4.93 µM

Structure (SMILES): Nc1ccccc1NC(=O)c1ccc(CCCC(=O)Nc2ccc(C3CC3N)cc2)cc1 (stereo unspecified)
IC50 [23]: 200 nM
Activity [24]: <=61%
IC50 [25]: 100 nM
IC50 [26]: 140 nM

Structure (SMILES): O=C(CCCCc1cn(-c2ccc(C(=O)c3c(-c4ccc(O)cc4)sc4cc(O)ccc34)cc2)nn1)NO
IC50 [15]: 1300 nM
IC50 [27]: 1820 nM

Structure (SMILES): CC1(C)C(=O)N(c2ccc(C#N)c(C(F)(F)F)c2)C(=O)N1Cc1ccc(-c2cn(CCCCCCC(=O)NO)nn2)cc1
IC50 [28]: 690 nM
IC50 [29]: 1000 nM
IC50 [30]: 1100 nM

Structure (SMILES): O=C(CCn1cc(CCn2nc3c(Br)c(Br)c(Br)c(Br)c3n2)nn1)NO
IC50 [31]: 4.26 µM
IC50 [32]: 2200 nM
IC50 [33]: 2870 nM
